Test results from patent US20220000811A1, “COMPOSITION FOR PROMOTING HAIR GROWTH COMPRISING A GUANINE DERIVATIVE” (KOREA RESEARCH INSTITUTE OF BIOSCIENCE AND BIOTECHNOLOGY, priority 2019, published 2022).

Experiments:
[1] = test system: K15, β-catenin, Ki67, Shh, PDK, PDH; assay: Histochemical (immunostaining) analysis of skin markers; type: in vivo, mouse
Experimental: (§1) During the hair telogen phase, the hair on the dorsal skin of 7-week-old C57BL/6 mice (Dae Han BioLink, Chungbuk, Republic of Korea) was depilated using an animal clipper and wax (Veet, Oxy Reckitt Benckiser, Seoul, Republic of Korea). From the next day, 200 μL of placebo (control), 1% IM, 1% minoxidil, or 1% metformin was applied daily to the depilated area using a sterile cotton swab. Images of each animal were captured daily, and the degree of darkness of the color on dorsal skin was quantified in the same area (1.6 cm×3 cm) using the Image J program. The mice were sacrificed, and skin tissues on days 0, 7, 14, and 20 were obtained. Half of the tissues were used for RNA isolation, and the other half were fixed with 4% paraformaldehyde overnight for histochemical analysis. The tissues fixed in Example 1.1. were immersed in 30% sucrose, and then embedded in an OCT compound (Sakura Finetek USA Inc, Torrance, Calif., USA). Frozen fragments were obtained using a cryostat sectioning device (Leica, Wetzlar, Germany) and stained using hematoxylin (Sigma) and eosin (Sigma) (H&E), or each of the antibodies shown in Table 1 below. Immunohistochemical analysis was performed, and fluorescence images were taken with an Olympus microscope (Olympus)

C57BL/6 mice = assay: Side effects observed during hair regeneration experiment; type: in vivo, mouse; conditions: topical treatment during the experiment
Experimental: During the hair telogen phase, the hair on the dorsal skin of 7-week-old C57BL/6 mice (Dae Han BioLink, Chungbuk, Republic of Korea) was depilated using an animal clipper and wax (Veet, Oxy Reckitt Benckiser, Seoul, Republic of Korea). From the next day, 200 μL of placebo (control), 1% IM, 1% minoxidil, or 1% metformin was applied daily to the depilated area using a sterile cotton swab. Images of each animal were captured daily, and the degree of darkness of the color on dorsal skin was quantified in the same area (1.6 cm×3 cm) using the Image J program. The mice were sacrificed, and skin tissues on days 0, 7, 14, and 20 were obtained. Half of the tissues were used for RNA isolation, and the other half were fixed with 4% paraformaldehyde overnight for histochemical analysis.

hair follicles = assay: Quantitative histomorphometric analysis of hair follicle cycle and number (H&E); type: in vivo, mouse
Experimental: as §1, with “(Olympus) According to the guidelines for accurately classifying the hair cycle stages, the hair cycle was quantified by classifying individual hair follicles with H&E staining micrographs in the longitudinal section of each mouse (n>10). The percentage of the anagen phase of the hair was calculated for each group. Hair follicles in the same area (1300 μm width) were counted by H&E staining micrographs in the cross section of each mouse (n>10).” for “(Olympus)”

[2] = test system: human foreskin fibroblast (HFFs); assay: Reprogramming into iPSCs (OSKM) in human foreskin fibroblasts, AP staining; type: cell-based
Experimental: After 28 days, AP staining was performed (FIG. 3a), and the number of AP^+ colonies was quantified (FIG. 3b).

Question: With `Cc1ccccc1CCNC(=N)NC(=N)N` [IM176OUT05, N-1-(2-methyl)phenethylbiguanide] as the compound, how does the Ki67-positive proliferating cells ([1]; day 7) read?
Answer: identified

Question: What about the “PDH expression in Ki67-positive proliferating cells” value ([1]; day 7) of the same compound?
Answer: clearly confirmed

Question: What about the “PDK expression in K15-positive stem cells” value ([1]; day 7) of the same compound?
Answer: detected

Question: What about the “expression of δ-catenin” value ([1]; day 7) of the same compound?
Answer: increased

Question: And the “keratin 15 (K15) expression in follicle protrusion region compared to control or minoxidil” value ([1]; day 7)?
Answer: strongly expressed

Question: And the “K15/PDH and Ki67/PDK expressions” value ([1]; day 20)?
Answer: independently detected

Question: And the “Sonic hedgehog (Shh) detection” value ([1]; day 20)?
Answer: clearly detected

Question: What about the “side effects, including skin problems” value (C57BL/6 mice) of the same compound?
Answer: No side effects

Question: What about the “number of hair follicles compared to control” value (hair follicles; day 7, cross section) of the same compound?
Answer: significantly increased

Question: What about the “number of hair follicles compared to control” value (hair follicles; day 20) of the same compound?
Answer: significantly higher

Question: What about the “stage of most hair follicles” value (hair follicles; day 20, longitudinal section) of the same compound?
Answer: growth phases V and VI

Question: What about the “progression of the hair follicle cycle” value (hair follicles; histomorphometry) of the same compound?
Answer: stimulated the progression of the hair follicle cycle

Question: What about the enhancing reprogramming efficiency ([2]; 10 nM, 100 nM, and 500 nM, 28 days) of the same compound?
Answer: ≥ 2.4 times

Question: And the “concentration with the most excellent reprogramming efficacy” value ([2]; OSKM, after 28 days)?
Answer: 10 nM
